Calls of active or inactive are those of the source. The calls are words filed in the database; no cut-off is given here.
What was measured:
Type in all cases: functional, cell-based
Relaxin-3 receptor 1 [1] = molecular target: T1, Relaxin-3 receptor 1 (Homo sapiens, UniProt Q9NSD7); assay: Antagonist activity at human RXFP3 expressed in CHO-K1 cells assessed as [35S]GTPgammaS binding incubated for 1 hr by [35S]GTP-gammaS binding assay
T1 sequence (Q9NSD7 whole entry): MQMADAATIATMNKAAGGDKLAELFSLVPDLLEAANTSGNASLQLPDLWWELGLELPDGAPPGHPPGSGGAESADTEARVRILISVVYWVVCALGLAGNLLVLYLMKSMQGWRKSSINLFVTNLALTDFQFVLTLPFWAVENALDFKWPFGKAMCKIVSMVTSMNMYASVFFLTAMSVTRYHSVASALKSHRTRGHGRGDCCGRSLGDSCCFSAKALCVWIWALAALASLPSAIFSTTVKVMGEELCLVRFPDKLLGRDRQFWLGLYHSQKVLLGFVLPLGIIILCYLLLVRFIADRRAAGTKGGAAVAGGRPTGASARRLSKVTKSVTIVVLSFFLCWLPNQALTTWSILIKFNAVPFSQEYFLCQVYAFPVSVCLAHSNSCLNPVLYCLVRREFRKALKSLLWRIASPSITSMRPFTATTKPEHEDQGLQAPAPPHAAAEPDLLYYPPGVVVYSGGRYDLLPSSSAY

[2] = molecular target: Relaxin receptor 1 (Homo sapiens) (UniProt Q9HBX9); assay: Antagonist activity at human RXFP1 receptor expressed in CHO-K1 cells assessed as cAMP production at 10 to 30 uM in presence of relaxin-3 incubated for 30 mins by TR-FRET assay; details: filed as antagonist, dose 10-30 µM
Relaxin-3 receptor 1 [3] = molecular target: T1, Relaxin-3 receptor 1; assay: Antagonist activity at human RXFP3 expressed in CHO-K1 cells assessed as forskolin-induced cAMP accumulation measured after 30 mins in presence of relaxin-3 by TR-FRET assay

Chain of Relaxin receptor 1 (Homo sapiens) (Q9HBX9 whole entry): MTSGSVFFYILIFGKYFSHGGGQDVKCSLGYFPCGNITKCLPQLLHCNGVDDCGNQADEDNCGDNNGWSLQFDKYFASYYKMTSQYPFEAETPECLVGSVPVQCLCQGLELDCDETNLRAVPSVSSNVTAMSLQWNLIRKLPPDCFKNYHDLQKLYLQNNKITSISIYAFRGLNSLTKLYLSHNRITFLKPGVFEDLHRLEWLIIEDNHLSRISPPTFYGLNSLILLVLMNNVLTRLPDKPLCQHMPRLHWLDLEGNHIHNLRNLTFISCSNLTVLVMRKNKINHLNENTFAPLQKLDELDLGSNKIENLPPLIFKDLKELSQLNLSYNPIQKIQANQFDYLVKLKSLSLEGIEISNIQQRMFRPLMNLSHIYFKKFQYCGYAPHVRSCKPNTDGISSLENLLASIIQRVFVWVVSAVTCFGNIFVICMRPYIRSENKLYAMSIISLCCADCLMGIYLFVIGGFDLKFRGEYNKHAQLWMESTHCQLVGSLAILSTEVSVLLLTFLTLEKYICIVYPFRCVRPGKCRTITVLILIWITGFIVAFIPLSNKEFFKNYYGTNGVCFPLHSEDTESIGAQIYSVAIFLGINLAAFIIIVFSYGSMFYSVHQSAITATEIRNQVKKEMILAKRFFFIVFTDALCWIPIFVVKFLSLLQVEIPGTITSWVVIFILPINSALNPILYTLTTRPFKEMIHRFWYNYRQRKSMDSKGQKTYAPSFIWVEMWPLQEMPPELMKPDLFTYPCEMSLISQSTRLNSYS

Compound	IC50 (Relaxin-3 receptor 1 [1]) [µM]	Activity [2]	IC50 (Relaxin-3 receptor 1 [3]) [µM]
O=C(Nc1ccc(-c2nc(-c3ccc(Cl)cc3)no2)cc1)C1CC(=O)N(Cc2cccnc2)C1 (stereo not given)	3.04	Active	
Cc1ccc(-c2noc(-c3ccc(NC(=O)C4CC(=O)N(Cc5ccccn5)C4)cc3)n2)cc1 (stereo not given)			> 10
Cc1ccc(-c2noc(-c3ccc(NC(=O)C4CC(=O)N(Cc5cccnc5)C4)cc3)n2)cc1 (stereo not given)			2.12
Cc1ccc(-c2noc(-c3ccc(NC(=O)C4CC(=O)N(Cc5cccc(F)c5)C4)cc3)n2)cc1 (stereo not given)			> 10

From ChEMBL document CHEMBL5154921, “Discovery and Characterization of the First Nonpeptide Antagonists for the Relaxin-3/RXFP3 System” (J Med Chem, 2022)
